Reference: the CheMixHub drug solubility set

Assay: xn = mol fraction of the nth substance listed, in the solute-free solvent

NC(N)=C([N+](=O)[O-])[N+](=O)[O-] + CS(C)=O + CC(=O)CC(C)C
solubility (g/100 g solution)
Settings | 293.15 K | 298.15 K | 303.15 K | 308.15 K | 313.15 K | 318.15 K | 323.15 K | 328.15 K | 333.15 K
x2 = 0.1634 | 1.9 | 1.97 | 2.1 | 2.25 | 2.41 | 2.57 | 2.74 | 2.92 | 3.13
x2 = 0.3054 | 5.11 | 5.4 | 5.7 | 5.99 | 6.28 | 6.6 | 6.95 | 7.29 | 7.68
x2 = 0.4297 | 9.16 | 9.64 | 10 | 10.4 | 10.8 | 11.2 | 11.7 | 12.2 | 12.7
x2 = 0.5397 | 13.1 | 13.7 | 14.2 | 14.6 | 15.1 | 15.6 | 16.1 | 16.7 | 17.2
x2 = 0.6375 | 17 | 17.6 | 18.1 | 18.6 | 19 | 19.6 | 20.1 | 20.7 | 21.3
x2 = 0.7251 | 20.2 | 21 | 21.5 | 21.9 | 22.5 | 23.1 | 23.7 | 24.3 | 25
x2 = 0.804 | 23.2 | 23.8 | 24.3 | 24.8 | 25.3 | 25.9 | 26.6 | 27.2 | 27.8
x2 = 0.8755 | 25.6 | 26.3 | 26.8 | 27.2 | 27.8 | 28.4 | 28.9 | 29.6 | 30.2
x2 = 0.9406 | 27.4 | 28.5 | 29 | 29.5 | 30.1 | 30.6 | 31.2 | 31.8 | 32.4

CC1=NNC(=O)N(N=Cc2cccnc2)C1 + CS(C)=O + CC(C)O
solubility (g/100 g solution)
Settings | 293.15 K | 298.15 K | 303.15 K | 308.15 K | 313.15 K | 318.15 K
x2 = 0.1614 | 0.482 | 0.555 | 0.623 | 0.721 | 0.847 | 0.956
x2 = 0.3392 | 0.992 | 1.11 | 1.25 | 1.39 | 1.57 | 1.77
x2 = 0.5359 | 1.42 | 1.59 | 1.78 | 2.05 | 2.32 | 2.58
x2 = 0.7549 | 1.8 | 2.01 | 2.28 | 2.59 | 2.91 | 3.28
